# Patent publication US10801023B2, “Methods of identifying biologically active random peptides in plants and libraries of plants expressing candidate biologically active random peptides” (University of Florida Research Foundation, Inc., priority 2015, dated 2020)
# Assays:
# [1] = tested on: Arabidopsis thaliana plants; assay: Screening of library of transformed plants expressing candidate BARPs for new phenotypes; type: in vivo; conditions: for new phenotype associated with the BARP: plant of the library from which the BARP sequence was isolated; for phenotype: transgenic Arabidopsis thaliana expressing the BARP, scored from emergence to senescence
# From the text: In the present example, the methods of the present disclosure were used to generate a library of test nucleic acids encoding a plurality of candidate BARPs, each having a core 6 amino acid random peptide sequence flanked by two cysteine residues. The sequences were also flanked by start and stop codons and Gateway® sequences, such as illustrated in FIG. 1. PCR was used with primers corresponding to the known Gateway flanking sequences to generate the test nucleic acid library. The oligonucleotides were then cloned into bacterial vectors including genes for kanamycin resistance to create a recombination vector library. The vectors were then moved to Agrobacterium tumefaciens strain […] and used to transform Arabidopsis thaliana plants. Seeds were collected from the transformed plants and used to grow new plants. These plants were observed from seedling through the plant lifecycle and observed for new phenotypes. Several new phenotypes emerged, DNA was extracted from the plants displaying new phenotypes, and the sequence of the candidate BARP from the plants was determined. The procedures and results are described in detail below.
# The test nucleic acid sequences were synthesized using conserved initiator and terminator sequences flanking 18 random nucleotides, which provides a peptide that is ten amino acids long, with six of the core amino acids randomized, following a Met-Ala-Cys and ending with a Cys-term. This template is illustrated in FIG. 1. In the present example, the corresponding nucleic acid sequence was […] (SEQ ID NO: 5; nucleotides 14-46 of SEQ ID NO: 1). The cysteine residues in this case provide potential for formation of disulfide bonds that may impart additional structure to the adjacent amino acid loop. Although in this example 18 random nucleotides (identified as “N” in SEQ ID NOs: 1 and 5) were used, any number may be used, as long as it is a multiple of three.
# To construct the library of random-core BARP sequences, the above DNA sequence was synthesized as an oligonucleotide sequence, along with flanking sequences corresponding to the Gateway® recombination sequences. The middle portion of the sequence, represented by “N” in FIG. 1, were randomized nucleotides. Known synthesis techniques were used to build the sequences, resulting in a library of PCR products containing test nucleic acid sequences (start codon, spacer codon, cysteine codon, 18 random nucleotides encoding a core candidate BARP sequence, second cysteine codon, and stop codon) flanked by Gateway recombination sequences. Although Gateway® sequences were used in the present examples, other recombination cloning primer sequences could be used or specifically designed.
# The library of PCR products containing random test sequences was amplified using PCR based on flanking primers containing Gateway recombination sequences. These reactions produced a population of PCR products each containing the core peptide test sequence flanked by Gateway recombination sequences. These PCR products were introduced to the vector pDONR222 using Gateway recombination, and then transformed into E. coli genotype DH5α. The transformation vector also included the NPTII gene for kanamycin resistance. The E. coli cells were plated on kanamycin plates at low density to obtain single-colony separation. The single colonies each contained a separate plasmid bearing a random peptide sequence.
# The colonies were recovered from plates in liquid medium, and the plasmids were isolated. The isolated plasmids represented a library of many independent, random sequences (encoding candidate BARPs) flanked by ‘start’ and ‘stop’ sequences. […]
# [2] = tested on: Arabidopsis plants; assay: Plant growth and phenotyping of PEP6 / PEP12 transgenic plants; type: in vivo, Arabidopsis thaliana; conditions: transgenic plant in soil; normal-sized plants 25 mm to 30 mm
# From the text: Two libraries encoding six- and twelve-random amino acid cyclized peptides (denoted PEP6 and PEP12, respectively) were constructed in binary vectors (as illustrated in FIG. 9) using a Gateway cloning strategy and transformed into Arabidopsis. More than 1,500 transgenic plants with the PEP6 T-DNA inserts were isolated and more than 600 transgenic plants were isolated carrying the PEP12 insert, representing a survival ratio of 1.8% and 1.2% respectively under kanamycin selection. To ensure library representation in the population, DNA was prepared from at least fifty transgenic plants, including ten that had small rosette diameter (5 mm to 10 mm) (e.g., those having BARP sequences SEQ ID NO: 14, 16, 6, 19, 21, 23, 26, 28, 30, and 32) compared to normal-sized plants (25 mm to 30 mm; see Table 2). The nucleotide sequences of all amplified random peptide open reading frames (rpORFs) were different, indicating representation of library diversity was maintained throughout the cloning and transformation process. Several phenotypes were visually apparent. […] Some plants showing multiple growth defects were recorded in each phenotype. Bolting plants with multiple inflorescences were transformed with the PEP6 or PEP12 destination library through the floral dipping method (Clough and Bent, 1998, incorporated herein by reference). For selection, seeds were surface sterilized by 70% ethanol for 5 min and 10% bleach for 20 min. Surface-sterilized seeds were plated on ½× MS basal medium with 0.5% Phyto Agar (cat. # M10200 and # A20300, Research Products International) and 50 μg/ml kanamycin for selection. Transgenic seedlings were identified by GFP expression or resistance to kanamycin. Transformed seedlings were grown to the 3-5 true leaf stage on plates and transferred to soil. DNA was extracted from each seedling (Edwards et al., 1991 incorporated herein by reference) for inserted nucleotide sequence identification. An approximately 500 bp DNA fragment containing the random peptide ORF and part of pK7WG2D vector sequence was amplified using primers PEP-F and PEP-R (SEQ ID NOs: 35 and 36, respectively) listed in Table 4 and sequenced. Arabidopsis plants were grown in soil at 20° C. under 16 hour light/8 hour dark conditions. The characterization of phenotypic variations was based on the comparison among seedlings grown in the same pot or flat.
# [3] = tested on: Arabidopsis thaliana plants; assay: Independent replication of peptide-induced phenotypes in independent transformant lines; type: in vivo; conditions: BARP sequence re-introduced into Arabidopsis thaliana
# Procedure: A number of first-transformed generation plants were prepared and phenotypes were observed using the methods described in Example 1, above. In this example some 12-amino-acid-long candidate BARPs were also synthesized and tested. The procedures were the same as for the 6-aa BARPs described in Example 1. These phenotypes were also observed to be stable and inherited in subsequent generations. To verify that the effects observed are due to the expressed peptide and not to other less-likely positional/insertional causes, in this Example, a substantial number of the of the candidate 6 and 12 amino-acid-long BARPs were sequenced and separately transformed into independent plants. […] One microliter was used in a PCR reaction under standard conditions, and using primers corresponding to the attachment (recombinational cloning sequences) of the Gateway vector, the corresponding BARP sequences was amplified. This sequences were then recombined into the pDONR222 vector and then re-ligated into the binary pKWDG2 over-expression vector as described above. This sequence was then re-introduced into Arabidopsis thaliana plants using the floral dipping strategy and selection as noted above. The seedlings were then analyzed for the phenotype as defined by the original transformant. Recapitulation of the phenotype in multiple, independent transformation events provided high evidence of a specific physiological effect of the peptide.
# [4] = tested on: Arabidopsis seedlings; assay: Inhibition of hypocotyl elongation under different light conditions; type: in vivo, Arabidopsis thaliana
# Procedure: Seeds were surface sterilized using a brief treatment of 70% ethanol and then set to dry on sterile paper discs in a laminar flow hood. The seeds were placed on 1 mM KCl plus 1 mM CaCl2 media containing 1% Phyto Agar on 100 mm square plates and stratified for 48 h. The vertical plates were transferred to various light conditions of varying spectral quality and fluence rates (as described in FIGS. 12A-12B), or complete darkness. […] Plants grown in darkness were placed under one of the narrow bandwidth treatments wrapped in two layers of aluminum foil. After 96 h the plates were scanned and the seedlings were measured using ImageJ software, and the length of the seedlings was reported as a fraction of dark-grown seedling length.
# [5] = tested on: Arabidopsis thaliana seedlings; assay: Salt tolerance screen and root elongation on salt media; type: in vivo
# Procedure: Also, to test for phenotypes not readily observable under normal conditions, seeds were collected from all plants in sets of nine and stored together, then planted and screened in various stress conditions to identify additional phenotypes. For example, seeds were planted on plant-growth media containing […] to screen for seedlings showing resistance to salt. Populations of BARP containing plants have also been grown in soil under water-deficit stress, leading to identification of peptides that confer tolerance to drought stress up on further evaluation.
# Also, to test for phenotypes not readily observable under normal conditions, seeds were collected from all plants, stored, and later planted and screened in various stress conditions to identify additional phenotypes. […] Two lines thrived on the high-salt media, one of them resulting in a conspicuous root phenotype. […] The left-hand bars in the graph in FIG. 7A represent wild-type seedlings, and the right-hand bars show the effect of the peptide. Root elongation was measured four days after germination (Day 0) and then again at four-day intervals. Error bars represent standard error of the mean.
sequence,measurement,setting,value
MACDFLADLC (chemically synthesized peptide sequence of BARP associated with bushy seedling phenotype) [SEQ ID NO: 3],new phenotype associated with the BARP,[1],“bushy” seedling with small and upright leaves
MACGGGCSAC (chemically synthesized peptide sequence of BARP PEP6-46) [PEPB-46],rosette size,[2],10 mm
MACGKGSGLC (chemically synthesized peptide sequence of BARP associated with purple pigment accumulation in seed pods) [SEQ ID NO: 2],new phenotype associated with the BARP,[1],hyperaccumulation of purple pigments in seed pods
"MACKQAXQRC (chemically synthesized peptide sequence of BARP CBF6AA-85 associated with large, flat leaves and small petioles) [BARP; “X” represents a stop codon]",phenotype in independent transformant lines,[3],"large, flat leaves with small petioles"
same,phenotype,[1],"tiny, curly leaves"
MACNCSSDGC (chemically synthesized peptide sequence of BARP PEP6-27),rosette size,[2],8 mm
"MACPASVSVC (chemically synthesized peptide sequence of BARP 6AA-33.1 associated with salt resistance and elongated root growth) [PEP6-32, BARP associated with salt resistance, root growth and red light insensitivity]",hypocotyl length versus controls,[4]; 0.5 μmol·m^−2·s^−1 blue light,slightly longer hypocotyls
same,hypocotyl length versus controls,"[4]; blue light, fluence rates of 2 and 10 μmol·m^−2·s^−1",differences were not observed
same,hypocotyl length versus wild-type controls,"[4]; constant red light, fluence rates of 1, 10 and 50 μmol·m^−2·s^−1, four lines",longer hypocotyls than wild-type controls
same,seedling growth versus wild-type,[4]; darkness,comparable to wild-type seedlings
same,hypocotyl length versus controls,[4]; far red light conditions,No significant differences
same,hypocotyl length versus other seedlings,[4]; white light,slightly longer hypocotyls
same,salt tolerance,[5]; plant-growth media containing 100 μM NaCl,salt tolerance
same,root elongation,"[5]; seedlings on vertical agar plates under light, versus wild-type",increase in root elongation
same,rosette size,[2],27 mm
MACPNACFSC (chemically synthesized peptide sequence of BARP PEP6-33),rosette size,[2],9 mm
MACQELTMWC (chemically synthesized peptide sequence of BARP PEP6-30),rosette size,[2],10 mm
MACQLMWREC (chemically synthesized peptide sequence of BARP PEP6-28),rosette size,[2],8 mm
MACQQMLSGC (chemically synthesized peptide sequence of BARP PEP6-37),rosette size,[2],8 mm
"MACSAHCSDC (chemically synthesized peptide sequence of BARP associated with abberrant seedling characteristics) [SEQ ID NO: 4, BARP associated with strange seedling characteristics]",new phenotype associated with the BARP,[1],aberrant seedling characteristics
MACSDVSVIC (chemically synthesized peptide sequence of BARP PEP6-38),rosette size,[2],8 mm
MACWMSRMEC (chemically synthesized peptide sequence of BARP PEP6-12),rosette size,[2],5 mm
"MACWTSSVLC (chemically synthesized peptide sequence of BARP CBF6AA-110 associated with large, flat leaves and small petioles)",phenotype in independent transformant lines,[3],"large, flat leaves with small petioles"
same,phenotype,[1],tiny
MGCVCIEPYQRLRAKC (chemically synthesized peptide sequence of BARP 12AA-97 associated with arrested plant growth),phenotype in independent transformant lines,[3],arrested plant growth
same,phenotype,[1],died late
